Source: article PMC9048745, “Physicochemical investigation of a novel curcumin diethyl γ-aminobutyrate, a carbamate ester prodrug of curcumin with enhanced anti-neuroinflammatory activity” (PLoS ONE, 2022)
In brackets after ≈: the same amount, converted by molar mass. Like-named read-outs stand apart in the source and are kept apart here.

How the values were obtained:
BV-2 microglial cells [1] = assay: Cytotoxicity (MTT assay); type: cell-based, murine; conditions: BV-2 cells, 24 h
Experimental: BV-2 microglial cells were cultured in DMEM supplemented with 10% fetal bovine serum, 2 mM L-glutamine, 1% penicillin/streptomycin (100 units/mL penicillin and 100 μg/mL streptomycin) at 37°C in 5% CO2. BV-2 microglial cells were plated in a 24-well plate at a density of 2 × 10^5 cells/well for 24 h. Various concentrations at 0, 1.25, 2.5, 5, 10, or 20 μM of curcumin or CUR-2GE were determined for a non-toxic concentration. After 24 h, cell viability was assessed by an MTT assay. The media was removed and replaced with an MTT solution in PBS (0.5 mg/mL). After 3-h incubation, the MTT solution was discarded, and formazan crystals formed after the reaction was dissolved in DMSO. The absorbance was then read at 540 nm using a microplate reader (CLARIOstar®, BMG Labtech, Ortenberg, Germany). The percentage of cell viability was expressed relative to the control cells. In addition, the cell viability of BV-2 microglial cells treated with LPS and a combination of LPS and the test compounds was also determined.

[2] = tested on: TNF-α release in LPS-stimulated BV-2 microglial cells; assay: TNF-α ELISA; type: cell-based, murine; conditions: 10 μM, 12 h pre-incubation, then 1 μg/mL LPS 24 h; compared with curcumin
Experimental: (§1) BV-2 microglial cells were plated in a 24-well plate at a density of 2 × 10^5 per well for 24 h. The cells were pre-incubated for 12 h with curcumin (10 μM), CUR-2GE (10 μM), medium (DMEM), or a vehicle (0.5% DMSO). The cells were then induced with 1 μg/mL LPS for 24 h. The culture medium samples were collected and analyzed for nitric oxide (NO) and cytokines (TNF- and IL-6) using NO and enzyme-linked immunoassay (ELISA) assays, respectively.
Quantification of TNF-α and IL-6 was performed using commercially available ELISA kits according to the manufacturer’s protocol (BioLegend, San Diego, CA, USA). The absorbance was measured at 450 nm using the microplate reader, and the amount of TNF-α and IL-6 was determined against their corresponding standard curves of TNF-α and IL-6.

[3] = tested on: NO production in LPS-stimulated BV-2 microglial cells; assay: Nitric oxide assay (Griess reagent); type: cell-based, murine; conditions: 10 μM, 12 h pre-incubation, then 1 μg/mL LPS 24 h; compared with curcumin
Experimental: as §1
Nitric oxide (NO) production was determined by measuring nitrite, the NO metabolite, using Griess reagent. Briefly, the culture medium (100 μL) was added with 1% sulfanilamide (50 μL) and incubated for 5 min. Then, a solution of 0.1% N-(1-naphthyl)ethylenediamine dihydrochloride (50 μL) was added and incubated for 5 min. The absorbance was measured at 520 nm using the microplate reader, and the nitrite concentration was calculated against a calibration curve using NaNO₂ as a standard.

[4] = Solubility mimicking gastrointestinal pH, with and without 0.5% SLS; dose number (D0); type: physicochemical; conditions: for solubility at 1 h: thermodynamic from solid
Experimental: For solubility mimicking gastrointestinal pH, an excess amount of CUR-2GE (1 mg) was added to a vial containing 2 mL of buffer pH 1.2, 4.5 or 6.8 with and without a surfactant (0.5% SLS). The mixture was sonicated for 1 h before orbital shaking at 37°C at 100 rpm for 1 h. After that, the mixture was centrifuged at 25°C at 14,000 rpm for 10 min prior to UPLC analysis. Experiments were performed in triplicate. The dose number (D0) at different media was determined and the BSC solubility class was assigned. (see S1 Appendix).
S1 Appendix. Experimental procedures
The solubility category was classified according to USP [1] as very soluble (>1000 mg/mL), freely soluble (100-1000 mg/mL), soluble (33-100 mg/mL), sparingly soluble (10-33 mg/mL), slightly soluble (1-10 mg/mL), very slightly soluble (0.1-1 mg/mL) and practically […]
The percentage of CUR-2GE in the undissociated form at various pH values were calculated based on Henderson-Hasselbalch using Eq. 1:
%Undissociated form = 100 - antilog (pH-pKa) x 100 (1)
Where pH; pH value of the medium for solubilization, pKa; negative logarithm of the dissociation constant (Ka) of CUR-2GE with computed using the Marvin (Product version: 21.8.0) of ChemAxon (Budapest, Hungary) (http://www.chemaxon.com) accessed on June 2021.
The dose number (D0) was calculated to assign the BSC solubility class, the D0 for each pH buffer solution without surfactant was calculated using the following Eq. 2: […]
Where M0 is the highest dose strength (mg) of capsule equivalent to curcumin, the adopted dose of CUR-2GE is 927 mg equivalent to curcumin 500 mg dose. V0 is the initial gastric volume (≈250 mL), Cs is the saturation solubility of CUR-2GE in buffer solution without surfactant (mg/mL). Drugs with D0 < 1 in pH 1.2, 4.5 and 6.8 are considered as high solubility drugs. Drugs with D0 > 1 in any of the buffer solutions are classified as low solubility drugs.

BV-2 microglial cells [5] = assay: In vitro cellular uptake (fluorescence microscopy); type: cell-based, murine; conditions: BV-2 cells, 4-h incubation, 20 μM and 100 μM, compared with curcumin
Experimental: BV-2 microglial cells were plated in a 96-well plate (Costar, NY, USA) at a density of 10,000 cells/well for 24 h. The cells were incubated in DMEM media without phenol red for 4 h in the presence of curcumin and CUR-2GE at concentrations of 20 μM and 100 μM. Then, the sample was washed with PBS and the fluorescence intensity was measured using a fluorescence microscope (Olympus IX51 inverted microscope, Tokyo, Japan).

[6] = Release study in human plasma at 37°C; type: in vitro ADME
Experimental: The amount of curcumin released from CUR-2GE in human plasma was determined at 37°C at various time points. A stock solution of CUR-2GE (100 μg/mL) in the diluent was prepared and diluted with pre-incubated human plasma at 37°C for 5 min to obtain the final concentration of 5 μg/mL. The mixture was incubated at 37°C for 5, 10, 20, 30 and 60 min and each aliquot (300 μL) was added with 300 μL of acetonitrile to stop the reaction and further centrifugated at 4°C at 14,000 rpm for 30 min. The concentration of CUR-2GE in the supernatant was analyzed using UPLC [19, 26]. Experiments were carried out in triplicates. The initial time point (0 min) was prepared by adding 300 μL acetonitrile to the pre-incubated human plasma. The percent peak area of CUR-2GE and its hydrolytic products was plotted against incubation time. The k and t1/2 values were determined using the linear pseudo-first-order model.

[7] = M0 927 mg, V0 250 mL, Cs at 37°C without 0.5% SLS

## CCOC(=O)CCCNC(=O)Oc1ccc(/C=C/C(=O)/C=C(O)/C=C/c2ccc(OC(=O)NCCCC(=O)OCC)c(OC)c2)cc1OC [CUR-2GE, Curcumin diethyl γ-aminobutyrate]
BV-2 microglial cells [1]
  non-toxic concentrations (no cytotoxicity): ≤ 10 µM
[2]
  inhibition of TNF-α release: to a greater extent than curcumin
[3]
  inhibition of NO production: to a greater extent than curcumin
[4]; 37°C, without SLS, <LOQ refers to less than 0.05 μg/mL
  Solubility, buffer pH 1.2: <LOQ
[4]; [7]
  D0 x 10^3 (dose number), buffer pH 1.2: 74.16 x 10^3
  D0 x 10^3 (dose number), buffer pH 4.5: 5.80 x 10^3
  D0 x 10^3 (dose number), buffer pH 6.8: 10.89 x 10^3
[4]; all media except buffer pH 1.2 with SLS
  degradation during solubility test: less than 10%
[4]; buffer pH 1.2 with SLS, 37°C
  degradation during solubility test: more than 10%
[4]; buffer pH 4.5 with 0.5% SLS, pH 4.5, aqueous with cosolvent or surfactant or cyclodextrin, 37°C + 0.5% SLS, read-out: Solubility, buffer pH 4.5
  solubility at 1 h: 23.35 ± 0.18 µg/mL
[4]; buffer pH 4.5 without SLS, pH 4.5, aqueous buffer, 37°C, without SLS, read-out: Solubility, buffer pH 4.5
  solubility at 1 h: 0.64 ± 0.51 µg/mL (≈ 0.937 µM)
[4]; buffer pH 6.8 with 0.5% SLS, pH 6.8, aqueous with cosolvent or surfactant or cyclodextrin, 37°C + 0.5% SLS, read-out: Solubility, buffer pH 6.8
  solubility at 1 h: 148 ± 38.5 µg/mL
[4]; buffer pH 6.8 without SLS, pH 6.8, aqueous buffer, 37°C, without SLS, read-out: Solubility, buffer pH 6.8
  solubility at 1 h: 0.34 ± 0.5 µg/mL (≈ 0.498 µM)
[4]; buffers pH 1.2, 4.5 and 6.8 without surfactant, aqueous buffer, pH 1.2-6.8, 37°C, without SLS, read-out: Solubility in buffers at all tested pH
  solubility at 1 h: < 1 µg/mL
[4]; pH 1.2-6.8, 37°C, without SLS
  D0 (dose number) in buffers at all tested pH: > 1
BV-2 microglial cells [5]
  cellular uptake (fluorescence intensity): higher fluorescence intensity than curcumin
[6]
  rate in human plasma lower than that in buffer pH 7.4: approximately 8.7 fold
[6]; human plasma
  k, pseudo-first-order hydrolysis: 1.76 ± 0.30 h⁻¹
  time for sequential conversion to CUR-1GE and curcumin in plasma: ≤ 1 h
[6]; human plasma, read-out: t1/2, hydrolysis (converted)
  half-life at 5 μg/mL: 24 ± 4.8 min
